The record followed here is patent US7119229B2 (priority 2001, dated 2006).

Assay type in all cases: cell-based
Test [1] concerns A 549 (human non-small cell lung). Put plainly: SRB cytotoxicity assay, A549. As to conditions: read-out: ED50 A549. As to the method: (§1) Human tumor cells, including MCF-7 (human breast adenomatous tumor), MCF-7/DOX (adriamycin resistant cell strain), MRS-SA (human uterine sarcoma), MES-SA/DX5 (adriamycin resistant cell strain), A 549 (human non-small cell lung), SKOV-3 (human ovarian), SKMEL-2 (human melanoma), XF-498 (human CNS), HCT-15 (human colon) were incubated at 37° C. in the presence of 5% CO2 using a DMEM culture medium. The respective cells were seeded into each well of 96-well plates at a concentration of 2×10^3˜5×10^3 cells/well. […] Each cell line of the resultant plates was fixed with trichloroacetic acid (TCA), stained with 0.4% SRB solution and rinsed with 1% acetic acid. Thereafter, the dye was dissolved in 10 mM Tris base to measure the optical density (OD) at 520 nm.

Test [2] relates to MCF-7 (human breast adenomatous tumor). The experiment in a line: SRB cytotoxicity assay, MCF7. The note with it: read-out: ED50 MCF7. As for the experimental part: as §1
The next test has as its system HCT-15 (human colon). Put plainly: SRB cytotoxicity assay, HCT15. The note with it: read-out: ED50 HCT15. As to the method: as §1
The test system of test [3] is MES-SA (human uterine sarcoma). The experiment in a line: SRB cytotoxicity assay, MES-SA. The note with it: read-out: ED50 MES-SA. As to the method: as §1
(Sulforhodamine B stains cellular protein and so reports cell mass.)

Test [4] deals with MES-SA/DX5 (adriamycin resistant cell strain). Put plainly: SRB cytotoxicity assay, MES-SA/DX5. As to conditions: Homo sapiens, read-out: ED50 MES-SA/DX5. As to the method:
as §1

In test [5] the test system is BALB/c mouse spleen cells, T cells activated with concanvalin A (ConA). The experiment in a line: Immunosuppressive effect test using BALB/c mouse spleen cells, ConA (T cells). As to conditions: 2 μg/ml of ConA, 72 hours, MTS, FIGS. 2 and 3. As for the experimental part: (§2) This test was carried out to determine the immunosuppressive effect of an immunosuppressive candidate material by checking anti-proliferation of T cells and B cells. To identify the proliferation inhibitory extent, responding cells (BALB/c mouse spleen cells) were treated with an immunosuppressive candidate material, lipopolysaccharide (LPS) as a B cell activator and concanvalin A (ConA) as a T cell activator. It is known that the responding cells treated with LPS induce proliferation of B cells and those treated with ConA induce proliferation of T cells.
(§3) Responding cells (BALB/c mouse spleen cells) were seeded into each well of 96-well plates at a concentration of 2×10^5 cells/well. […] After culturing for 72 hours at a CO2 incubator, a 20 μl MTS solution was added to each well, followed by further culturing for 2 to 4 hours and measuring OD at 490 nm using ELISA.

Test [6] relates to BALB/c mouse spleen cells, B cells activated with lipopolysaccharide (LPS). The experiment in a line: Immunosuppressive effect test using BALB/c mouse spleen cells, LPS (B cells). The note with it: 20 μg/ml lipopolysaccharide, 72 hours, MTS, FIGS. 2 and 3. As to the method:
as §2, §3

In test [7] the test system is MCF-7/DOX (adriamycin resistant cell strain). Put plainly: SRB cytotoxicity assay, MCF-7/DOX. As to conditions: Homo sapiens, MCF7-DOX, read-out: ED50 MCF-7/DOX. As for the experimental part: as §1
A further test relates to SKOV-3 (human ovarian). The experiment in a line: SRB cytotoxicity assay, SK-OV-3. The note with it: 72 hours, read-out: ED50 SK-OV-3. As for the experimental part:
as §1

The test system of another test is SKMEL-2 (human melanoma). Put plainly: SRB cytotoxicity assay, SK-MEL-2. As to conditions: read-out: ED50 SK-MEL-2. As to the method: as §1
The subject of test [8] is BALB/c mouse spleen cell (responding) and DBA/2 mouse spleen cell (stimulating). As to the method: MLR tests were carried out to determine the immunosuppressive effect of an immunosuppressive candidate material. When a responding cell (BALB/c mouse spleen cell) and a stimulating cell (DBA/2 mouse spleen cell) were cultured separately, the cells grew little. On the contrary, when the cells were simultaneously cultured, the cells were proliferated due to induction of an antigen-antibody reaction. The proliferated cells were treated with the immunosuppressive candidate material for measurement of the proliferation inhibitory extent.
After culturing for 72 hours at a CO2 incubator, a 20 μl MTS solution was added to each well, followed by further culturing for 2 to 4 hours and measuring OD at […] by using ELISA.

In another test the test system is XF-498 (human CNS). The experiment in a line: SRB cytotoxicity assay, XF498. As to conditions: 72 hours, read-out: ED50 XF498. As to the method:
as §1

Each structure is given as a SMILES string. Like-named read-outs stand apart in the source and are kept apart here.

Turning to `COc1cc2c(c(OC)c1OC)-c1ccc(SC)c(=O)cc1[C@@H](NC(=O)c1cccc(CO[N+](=O)[O-])c1)CC2` [Compound 12], the EC50 in test [1] (A549, 72 h) was 0.1 nM; in [2] (MCF7, 72 h), 0.02 nM; in the test on HCT-15 (human colon) (HCT-15, 72 h) it was 0.1 nM; in test [3] (72 h), 0.01 nM; in test [4] (MES-SA/Dx5, 72 h) it was 115 nM; in test [7] (72 h), 28 nM. Further, the EC50 was found to be 0.3 nM in the test with SKOV-3 (human ovarian); 0.1 nM with SKMEL-2 (human melanoma) (SK-MEL-2, 72 h); 0.2 nM with XF-498 (human CNS). Besides, the “anti-proliferation of T cells” value in [5] is recorded as “remarkable anti-proliferous effect”. Further, the “anti-proliferation of B cells” value in [6] is listed as “remarkable anti-proliferous effect”. In test [8], the immunosuppressive effect entry is reported as “good immunosuppressive effect”.

For the compound `CC(=O)O[C@H]1C(=O)[C@@]2(C)[C@H]([C@H](OC(=O)c3ccccc3)[C@]3(O)C[C@H](OC(=O)[C@H](O)[C@@H](NC(=O)c4ccccc4)c4ccccc4)C(C)=C1C3(C)C)[C@]1(OC(C)=O)CO[C@@H]1C[C@@H]2O` [Taxol, reference compound], the EC50 in test [1] (A549, SRB, 72 hours) came out at 0.3 nM; in test [2] (MCF7, SRB, 72 hours), 0.04 nM; in the test with HCT-15 (human colon) (HCT-15, SRB, 72 hours), 0.1 nM; in test [3] (SRB, 72 hours), 0.02 nM; in [4] (MES-SA/Dx5, SRB, 72 hours), 1150 nM; in test [7] (SRB, 72 hours), 943 nM. Moreover, the EC50 is 1.2 nM in the test on SKOV-3 (human ovarian); 0.1 nM with SKMEL-2 (human melanoma) (SK-MEL-2, SRB, 72 hours); 1.7 nM with XF-498 (human CNS).
